From paper PMC9112550, “Optimization of the antimicrobial peptide Bac7 by deep mutational scanning” (BMC Biology, 2022) come the findings set out here.

The assay deals with E. coli TOP10. Kind of assay: Membrane damage assay in MHB I (GFP loss, PI uptake). The format is cell-based. To be noted: not cation-adjusted, n = 3. On the procedure:
For membrane damage assays, the bacterial strain […] [pSEVA271-sfGFP] and the peptide dilutions were prepared as described for the MIC measurements but by scaling all volumes 5-fold and using 96-well plates (polypropylene, U-bottom, 650201, Greiner, Kremsmünster, AT) with a final assay volume of 200 μl. The bacterial strain suspension was furthermore supplemented with a final concentration of 1 μg ml^−1 propidium iodide (PI, from a 1 mg ml^−1 stock in water) just before pipetting the assay. After 1 h incubation at room temperature, the cell membrane integrity was assessed by flow cytometry using a Fortessa Analyzer (BD Biosciences) and appropriate filters for GFP and PI (488-nm laser with 530/30-nm bandpass filter and 579-nm laser with 610/20-nm bandpass filter). […]
Fig. S8 | Membrane damage assay. Membrane damage assays measuring PI uptake of the cells (% cells are given that gained PI fluorescence) and GFP loss (% of the cells are given that lost sfGFP fluorescence) when incubating E. coli TOP10 cells with various peptide concentrations in MHB I (n=3; error bars = 1SD).Fig. S7 | Interactions observed per amino acid residue. For each amino acid residue, the occurrences of interactions at all positions were counted. No antagonistic effect was detected for glutamate and valine residues. No interaction was detected for serine. […]

Where no end group is shown, it is not given here.

As for RRIRIRPPRLPRPRPRPYFMPRP [Bac7PS], the “membrane damage, compared with MHB II” value is reported as “more pronounced”.
